From patent US8198284B2, “Treatment of neurodegenerative disorders with thiourea compounds” (National Health Research Institutes, priority 2008, dated 2012)

How the values were obtained:
Assay type in all cases: cell-based
[1] = system: COX-2; experiment: Anti-inflammatory activity: LPS-induced COX-2 expression (Western blotting)
Method: (§1) Compounds were evaluated for their efficacy in suppressing microglial immune activation by measuring their potency against LPS-induced expression of iNOS and COX-2 and IL-6 secretion. Microglia and Raw 264.7 cells (a microglia-like cell line) were pretreated with a test compound at various doses for 1 hr followed by 24 hr treatment of LPS (10 ng/ml). Cell lysates were subjected to Western blotting for iNOS and COX-2 evaluation. IL-6 secretion was measured from resulting culture medium by ELISA.

[2] = system: Hippocampal organotypic cultures; experiment: Neuro-protection against LPS toxicity in hippocampal organotypic cultures; details: pre-treatment, then LPS 10 ng/mL for 24 hr; Western blotting
Method: Compounds were evaluated for their efficacy in suppressing microglia-mediated neurotoxicity. Hippocampal organotypic cultures were established to serve as an ex vivo model for evaluation of hippocampal functions. Pre-treatment of the cultures with a test compound was followed by addition of LPS (10 ng/mL) for 24 hr. Hippocampal tissues were harvested and subjected to Western blotting for measuring synaptophysin and post synaptic density protein (PSD)95 levels, the indications for neuronal synatic functions.

[3] = system: IL-6; experiment: Anti-inflammatory activity: LPS-induced IL-6 secretion (ELISA)
Method: as §1

[4] = system: Microglia; experiment: Enhancement of microglial Aβ clearance and phagocytosis in vitro; details: n=6, p<0.001
Method: Compounds were evaluated for their efficacy in enhancing microglial phagocytosis of Aβ (or Aβ clearance). […] Lipopolysaccharide (LPS) at 10 ng/mL was added as a positive control, which is known to increase Aβ uptake. The culture medium was subjected to Western blotting for evaluating residual Aβ left in the medium. The mean values of fluorescent intensity measured by flow cytometer were compared between cells pretreated with the test compound and the ones in non-treated controls.

[5] = system: iNOS; experiment: Anti-inflammatory activity: LPS-induced iNOS expression (Western blotting)
Method: as §1

[6] = dose dependent, β-actin unchanged

IC50 ([1]; Mus musculus, RAW264.7, 1 hr pretreatment, then LPS 10 ng/ml for 24 hr, microglia and Raw 264.7 cells, read-out: Effective dose to show at least 50% suppression (IC50) for COX-2): 50 µM
IC50 ([3]; 1 hr pretreatment, then LPS 10 ng/ml for 24 hr, secretion by microglia, read-out: Effective dose to show at least 50% suppression (IC50) for IL-6): 20 µM
IC50 ([5]; Mus musculus, RAW264.7, 1 hr pretreatment, then LPS 10 ng/ml for 24 hr, microglia and Raw 264.7 cells, read-out: Effective dose to show at least 50% suppression (IC50) for iNOS): 1 µM
SMILES: NC(=S)Nc1cccc(OCCCCCNC(=S)Nc2cccc3ccccc23)c1 [Compound 1, 1-naphthalen-1-yl-3-[5-(3-thioureido-phenoxy)-pentyl]-thiourea]
LPS-induced COX-2 expression [1, 6]: significant suppression
LPS-induced reduction of PSD95 level [2]: prevented LPS-induced reduction
LPS-induced reduction of synaptophysin level [2]: prevented LPS-induced reduction
LPS-induced IL-6 secretion by microglia ([3]; dose dependent): inhibited
increase of Aβ uptake as compared to the controls ([4]; compound at 10 μM): approximately 29%
increase of Aβ uptake as compared to the controls ([4]; compound at 20 μM): ~44%
increase of Aβ uptake as compared to the controls ([4]; compound at 50 μM): ~128%
LPS-induced iNOS expression [5, 6]: significant suppression
